≈ marks a conversion by molar mass, not a printed value.
Key:
Staphylococcus aureus [1] = test: Antibacterial activity against methicillin resistant Staphylococcus aureus N 315 assessed as reduction in bacterial cell growth incubated for overnight by two-fold serial dilution method; type: functional
Proteus vulgaris = test: Antibacterial activity against Bacillus proteus ATCC 8427 assessed as reduction in bacterial cell growth incubated for overnight by two-fold serial dilution method; type: functional
Escherichia coli = test: Antibacterial activity against Escherichia coli JM109 assessed as reduction in bacterial cell growth incubated for overnight by two-fold serial dilution method; type: functional
Pseudomonas aeruginosa = test: Antibacterial activity against Pseudomonas aeruginosa ATCC 9027 assessed as reduction in bacterial cell growth incubated for overnight by two-fold serial dilution method; type: functional
[2] = Inhibition of Saccharomyces cerevisiae CGMCC 2.145 chitin synthase using GlcNAc and UDP-GlcNAc as substrate incubated for 60 mins by microplate reader analysis
Candida albicans = test: Antifungal activity against Candida albicans ATCC 76615 assessed as reduction in fungal cell growth incubated for 48 hrs by two-fold serial dilution method; type: functional; conditions: ATCC 76615, 48 h
Aspergillus flavus = test: Antifungal activity against Aspergillus flavus ATCC 16870 assessed as reduction in fungal cell growth incubated for 48 hrs by two-fold serial dilution method; type: functional; conditions: ATCC 16870, 48 h
Cryptococcus neoformans = test: Antifungal activity against Cryptococcus neoformans ATCC 32719 assessed as reduction in fungal cell growth incubated for 48 hrs by two-fold serial dilution method; type: functional; conditions: ATCC 32719, 48 h
Bacillus subtilis = test: Antibacterial activity against Bacillus subtilis ATCC 6633 assessed as reduction in bacterial cell growth incubated for overnight by two-fold serial dilution method; type: functional
Staphylococcus aureus [3] = test: Antibacterial activity against Staphylococcus aureus ATCC 25923 assessed as reduction in bacterial cell growth incubated for overnight by two-fold serial dilution method; type: functional
Saccharomyces cerevisiae = test: Inhibition of Saccharomyces cerevisiae CGMCC 2.145 chitin synthase using GlcNAc and UDP-GlcNAc as substrate at 300 ug/ml incubated for 60 mins by microplate reader analysis relative to control

Row | SMILES | MIC (Staphylococcus aureus [1]) [µg/mL] | MIC (Proteus vulgaris) [µg/mL] | MIC (Escherichia coli) [µg/mL] | MIC (Pseudomonas aeruginosa) [µg/mL] | IC50 [2] [µM] | MIC (Candida albicans) [µg/mL] | MIC (Aspergillus flavus) [µg/mL] | MIC (Cryptococcus neoformans) [µg/mL] | MIC (Bacillus subtilis) [µg/mL] | MIC (Staphylococcus aureus [3]) [µg/mL] | inhibition (Saccharomyces cerevisiae) [%]
1 | Cl.O=C1CCc2c(cccc2N2CCN(C[C@H](O)CNc3ccccc3)CC2)N1 | 128 | 128 | 256 | 256 | 170 | 64 | 128 | 256 | 256 | 256 | –
2 | Cc1cccc(C)c1NCC(O)CN1CCN(c2cccc3c2CCC(=O)N3)CC1.Cl (racemic) | 256 | 128 | 128 | 128 | – | 128 | 256 | 256 | 128 | 128 | 40.7
3 | COc1ccccc1NCC(O)CN1CCN(c2cccc3c2CCC(=O)N3)CC1.Cl (racemic) | 128 | 256 | 258 | 128 | – | 128 | 256 | 512 | 256 | 256 | 45.4
4 | COc1ccc(NC[C@@H](O)CN2CCN(c3cccc4c3CCC(=O)N4)CC2)cc1.Cl | 128 | 128 | 64 | 256 | 120 | 64 | 256 | 128 | 128 | 128 | –
5 | Cl.O=C1CCc2c(cccc2N2CCN(C[C@@H](O)CNc3ccccc3)CC2)N1 | 128 | 256 | 128 | 128 | 190 | 128 | 128 | 128 | 128 | 128 | –
6 | CCCCNC[C@H](O)CN1CCN(c2cccc3c2CCC(=O)N3)CC1.Cl | 256 | 256 | 128 | 128 | 340 | 64 | 512 | 256 | 512 | 256 | –
7 | CCN(CC)CC(O)CN1CCN(c2cccc3c2CCC(=O)N3)CC1.Cl (racemic) | 256 | 512 | 512 | 128 | – | 128 | 512 | 256 | 512 | 256 | 39.4
8 | Cc1ccccc1NCC(O)CN1CCN(c2cccc3c2CCC(=O)N3)CC1.Cl (racemic) | 128 | 128 | 256 | 128 | – | 128 | 256 | 256 | 128 | 128 | 28.4
9 | OC(Cn1cncn1)(Cn1cncn1)c1ccc(F)cc1F [FLUCONAZOLE] | – | – | – | – | – | 16 (≈ 52.2 µM) | 64 (≈ 209 µM) | 4 (≈ 13.1 µM) | – | – | –
10 | Cl.O=C1CCc2c(cccc2N2CCN(C[C@@H](O)CNc3ccc(Cl)cc3)CC2)N1 | 64 | 128 | 128 | 256 | 360 | 32 | 128 | 128 | 64 | 64 | –
11 | Cl.O=C1CCc2c(cccc2N2CCN(CC(O)CN(CCO)CCO)CC2)N1 (racemic) | 512 | 256 | 256 | 256 | – | 128 | 256 | 256 | 256 | 256 | 34.5
12 | Cl.O=C1CCc2c(cccc2N2CCN(CC(O)CN3CCNCC3)CC2)N1 (racemic) | 256 | 256 | 256 | 128 | – | 128 | 256 | 256 | 128 | 256 | 38.6
13 | Cl.O=C1CCc2c(cccc2N2CCN(CC(O)CN3CCCCCC3)CC2)N1 (racemic) | 512 | 256 | 256 | 256 | – | 128 | 256 | 256 | 256 | 256 | 45.4
14 | Cl.O=C1CCc2c(cccc2N2CCN(CC(O)CNCc3ccccc3)CC2)N1 (racemic) | 128 | 256 | 256 | 256 | – | 128 | > 512 | > 512 | 256 | 256 | 18.1
